Molecular target: T1, F508del (Homo sapiens, UniProt P13569, DEL508-508)
T1 construct: expressed in transfected cells
Experiment: Protocol 1: membrane potential optical assay (FLIPR III, voltage sensing dye), identification of potentiator compounds
Format: cell-based
Conditions: Table 3, compounds of Table 1
How it was run: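 NIH3T3 F508del cells, 27° C × 24 hrs; compound/DMSO pretreat → redistribution dye load → single forskolin addition with Cl⁻ gradient (gluconate-substituted bath, HEPES pH 7.4). FLIPR III membrane-potential fluorescence read.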

T1 sequence (P13569 with tags, fused parts or gaps DEL508-508): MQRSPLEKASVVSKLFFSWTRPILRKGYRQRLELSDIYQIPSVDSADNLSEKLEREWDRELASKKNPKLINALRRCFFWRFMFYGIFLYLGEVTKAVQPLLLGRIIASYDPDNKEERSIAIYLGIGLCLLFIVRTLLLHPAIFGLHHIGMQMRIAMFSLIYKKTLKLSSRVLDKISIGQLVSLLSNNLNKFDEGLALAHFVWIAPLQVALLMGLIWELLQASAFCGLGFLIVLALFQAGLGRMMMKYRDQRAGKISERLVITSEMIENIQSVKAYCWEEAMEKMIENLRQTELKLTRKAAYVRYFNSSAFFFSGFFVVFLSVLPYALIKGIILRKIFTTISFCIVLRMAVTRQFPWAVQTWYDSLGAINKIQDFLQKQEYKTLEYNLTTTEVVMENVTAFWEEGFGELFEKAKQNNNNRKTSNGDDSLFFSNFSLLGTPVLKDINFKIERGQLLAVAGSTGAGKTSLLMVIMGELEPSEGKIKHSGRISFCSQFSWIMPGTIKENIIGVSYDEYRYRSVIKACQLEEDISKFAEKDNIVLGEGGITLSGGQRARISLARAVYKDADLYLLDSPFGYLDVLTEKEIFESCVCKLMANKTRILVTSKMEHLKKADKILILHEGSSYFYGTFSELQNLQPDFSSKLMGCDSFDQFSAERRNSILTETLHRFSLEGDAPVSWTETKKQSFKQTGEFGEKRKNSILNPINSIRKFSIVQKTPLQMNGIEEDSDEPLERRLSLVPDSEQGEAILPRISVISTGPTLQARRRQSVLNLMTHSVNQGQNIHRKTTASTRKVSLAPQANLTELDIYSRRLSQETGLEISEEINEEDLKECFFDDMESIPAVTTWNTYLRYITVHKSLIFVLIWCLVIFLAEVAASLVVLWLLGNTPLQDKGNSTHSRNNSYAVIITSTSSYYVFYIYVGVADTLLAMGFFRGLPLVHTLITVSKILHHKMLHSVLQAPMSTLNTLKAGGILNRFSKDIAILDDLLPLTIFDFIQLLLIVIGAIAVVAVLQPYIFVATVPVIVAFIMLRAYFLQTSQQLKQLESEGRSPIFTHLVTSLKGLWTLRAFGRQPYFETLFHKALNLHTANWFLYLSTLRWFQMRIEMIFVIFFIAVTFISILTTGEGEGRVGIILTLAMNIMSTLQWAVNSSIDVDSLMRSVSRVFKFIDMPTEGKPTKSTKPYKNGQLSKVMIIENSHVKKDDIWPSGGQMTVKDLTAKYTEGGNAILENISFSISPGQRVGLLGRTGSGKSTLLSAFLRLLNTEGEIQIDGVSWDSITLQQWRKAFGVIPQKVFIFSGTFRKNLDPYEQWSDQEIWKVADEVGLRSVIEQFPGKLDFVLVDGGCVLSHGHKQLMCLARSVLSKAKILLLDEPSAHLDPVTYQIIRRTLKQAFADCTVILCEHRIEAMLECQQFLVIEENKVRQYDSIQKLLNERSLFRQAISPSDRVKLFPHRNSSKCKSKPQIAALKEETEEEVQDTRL

| EC30 | Structure (SMILES) |
| --- | --- |
| +++ (“+++” means <3 uM) | Cc1cc(C)c(Oc2nc(C3=CC4CCC3(C)C4(C)C)ccc2C(=O)NS(=O)(=O)c2cccc(N)n2)c(C)c1 (stereo not drawn) [Compound 1410, N-[(6-amino-2-pyridyl)sulfonyl]-6-(4,7,7-trimethyl-3-bicyclo[2.2.1]hept-2-enyl)-2-(2,4,6-trimethylphenoxy)pyridine-3-carboxamide] |
| +++ (“+++” means <3 uM) | CC(C)Cc1ccn(-c2ccc(C(=O)NS(=O)(=O)c3cccc(N)n3)c(N3C[C@@H](C)CC3(C)C)n2)n1 [Compound 1411, N-[(6-amino-2-pyridyl)sulfonyl]-6-(3-isobutylpyrazol-1-yl)-2-[(4S)-2,2,4-trimethylpyrrolidin-1-yl]pyridine-3-carboxamide] |
| +++ (“+++” means <3 uM) | Cc1cc(C)c(Oc2nc(C3=COCC3)ccc2C(=O)NS(=O)(=O)c2cccc(N)n2)c(C)c1 [Compound 1412, N-[(6-amino-2-pyridyl)sulfonyl]-6-(2,3-dihydrofuran-4-yl)-2-(2,4,6-trimethylphenoxy)pyridine-3-carboxamide] |
| +++ (“+++” means <3 uM) | CCOc1cccc2c1CN(Cc1c(C)cc(C)cc1C)C2(C)C(=O)NS(=O)(=O)c1ccc(N)nc1 (stereo not drawn) [Compound 1413, N-[(6-amino-3-pyridyl)sulfonyl]-4-ethoxy-1-methyl-2-[(2,4,6-trimethylphenyl)methyl]isoindoline-1-carboxamide] |
| +++ (“+++” means <3 uM) | CCOc1cccc2c1CN(Cc1c(C)cc(C)cc1C)C2(C)C(=O)NS(=O)(=O)c1cccc(NC(C)=O)n1 (stereo not drawn) [Compound 1415, N-[(6-acetamido-2-pyridyl)sulfonyl]-4-ethoxy-1-methyl-2-[(2,4,6-trimethylphenyl)methyl]isoindoline-1-carboxamide] |
| +++ (“+++” means <3 uM) | Cc1cc(C)c(Oc2nc(N(C)CC(C)C)c(C)cc2C(=O)NS(=O)(=O)c2cccc(N)n2)c(C)c1 [Compound 1416, N-[(6-amino-2-pyridyl)sulfonyl]-6-[isobutyl(methyl)amino]-5-methyl-2-(2,4,6-trimethylphenoxy)pyridine-3-carboxamide] |
| ++ (“++” means between 3 uM and 10 uM) | Cc1ccc(NCC(C)C)nc1-c1ccc(C(=O)NS(=O)(=O)c2cccc(N)n2)c(N2CC(C)CC2(C)C)n1 (stereo not drawn) [Compound 1417, N-[(6-amino-2-pyridyl)sulfonyl]-6-[6-(isobutylamino)-3-methyl-2-pyridyl]-2-(2,2,4-trimethylpyrrolidin-1-yl)pyridine-3-carboxamide] |
| +++ (“+++” means <3 uM) | CC1CN(c2nc(C(C)(C)C)c(C#N)cc2C(=O)NS(=O)(=O)c2cccc(N)n2)C(C)(C)C1 (stereo not drawn) [Compound 1419, N-[(6-amino-2-pyridyl)sulfonyl]-6-tert-butyl-5-cyano-2-(2,2,4-trimethylpyrrolidin-1-yl)pyridine-3-carboxamide] |
| ++ (“++” means between 3 uM and 10 uM) | Cc1ccc(C(=O)NS(=O)(=O)c2cccc(N)n2)c(N2C[C@@H](C)CC2(C)C)n1 [Compound 1420, N-[(6-amino-2-pyridyl)sulfonyl]-6-methyl-2-[(4S)-2,2,4-trimethylpyrrolidin-1-yl]pyridine-3-carboxamide] |
| +++ (“+++” means <3 uM) | CCOc1cccc2c1CN(Cc1cc(F)cc(OC)c1)C2(C)C(=O)NS(=O)(=O)c1cccc(N)n1 (stereo not drawn) [Compound 1421, N-[(6-amino-2-pyridyl)sulfonyl]-4-ethoxy-2-[(3-fluoro-5-methoxy-phenyl)methyl]-1-methyl-isoindoline-1-carboxamide] |
| +++ (“+++” means <3 uM) | CCOc1cccc2c1CN(Cc1c(C)cc(C)cc1C)C2(C)C(=O)NS(=O)(=O)c1ccc2c(c1)CCN2 (stereo not drawn) [Compound 1422, 4-ethoxy-N-indolin-5-ylsulfonyl-1-methyl-2-[(2,4,6-trimethylphenyl)methyl]isoindoline-1-carboxamide] |
| +++ (“+++” means <3 uM) | C=C(C)c1ccc(C(=O)NS(=O)(=O)c2cccc(N)n2)c(N2C[C@@H](C)CC2(C)C)n1 [Compound 1423, N-[(6-amino-2-pyridyl)sulfonyl]-6-isopropenyl-2-[(4S)-2,2,4-trimethylpyrrolidin-1-yl]pyridine-3-carboxamide] |
| +++ (“+++” means <3 uM) | C[C@@H]1CN(c2nc(-c3cc(F)cc(OCC(C)(C)O)c3)ccc2C(=O)NS(=O)(=O)c2cccc(N)n2)C(C)(C)C1 [Compound 1424, N-[(6-amino-2-pyridyl)sulfonyl]-6-[3-fluoro-5-(2-hydroxy-2-methyl-propoxy)phenyl]-2-[(4S)-2,2,4-trimethylpyrrolidin-1-yl]pyridine-3-carboxamide] |
| +++ (“+++” means <3 uM) | CCOc1cccc2c1CN(Cc1c(C)cc(C)cc1C)C2(C)C(=O)NS(=O)(=O)c1cccc(F)c1 (stereo not drawn) [Compound 1425, 4-ethoxy-N-(3-fluorophenyl)sulfonyl-1-methyl-2-[(2,4,6-trimethylphenyl)methyl]isoindoline-1-carboxamide] |
| +++ (“+++” means <3 uM) | Cc1cc(C)c(Oc2nc(C3CC(C)(C)CCC3=O)ccc2C(=O)NS(=O)(=O)c2cccc(N)n2)c(C)c1 (stereo not drawn) [Compound 1427, N-[(6-amino-2-pyridyl)sulfonyl]-6-(5,5-dimethyl-2-oxo-cyclohexyl)-2-(2,4,6-trimethylphenoxy)pyridine-3-carboxamide] |
| +++ (“+++” means <3 uM) | CCOc1cccc2c1CN(Cc1cc(F)cc(OC)c1)C2(C)C(=O)NS(=O)(=O)c1cccc(F)n1 (stereo not drawn) [Compound 1428, 4-ethoxy-2-[(3-fluoro-5-methoxy-phenyl)methyl]-N-[(6-fluoro-2-pyridyl)sulfonyl]-1-methyl-isoindoline-1-carboxamide] |

| Structure (SMILES) | EC30 |
| --- | --- |
| CC(C)COc1cc(F)cc(-c2nc(N3C[C@@H](C)CC3(C)C)ccc2C(=O)NS(=O)(=O)c2cccc(N)n2)c1 [Compound 1409, N-[(6-amino-2-pyridyl)sulfonyl]-2-(3-fluoro-5-isobutoxy-phenyl)-6-[(4S)-2,2,4-trimethylpyrrolidin-1-yl]pyridine-3-carboxamide] | +++ (“+++” means <3 uM) |
| CC(C)COc1cc(F)cc(-c2ccc(C(=O)NS(=O)(=O)N3CCCC(N(C)C)C3)c(N3CC(C)CC3(C)C)n2)c1 (stereo not drawn) [Compound 1414, N—[[3-(dimethylamino)-1-piperidyl]sulfonyl]-6-(3-fluoro-5-isobutoxy-phenyl)-2-(2,2,4-trimethylpyrrolidin-1-yl)pyridine-3-carboxamide] | +++ (“+++” means <3 uM) |
| CC(C)COc1cc(F)cc(-c2ccc(C(=O)NS(=O)(=O)c3cccc(N)n3)c(OCCC3CCC3)n2)c1 [Compound 1418, N-[(6-amino-2-pyridyl)sulfonyl]-2-(2-cyclobutylethoxy)-6-(3-fluoro-5-isobutoxy-phenyl)pyridine-3-carboxamide] | +++ (“+++” means <3 uM) |
| CC(C)COc1cc(F)cc(-c2ccc(C(=O)NS(=O)(=O)c3cccc(N)n3)c(OCCc3ccccc3)n2)c1 [Compound 1426, N-[(6-amino-2-pyridyl)sulfonyl]-6-(3-fluoro-5-isobutoxy-phenyl)-2-phenethyloxy-pyridine-3-carboxamide] | +++ (“+++” means <3 uM) |
| CC(C)COc1cc(F)cc(-c2ccc(C(=O)NS(=O)(=O)c3ccc(OCc4ccccc4)c(N)n3)c(N3C[C@@H](C)CC3(C)C)n2)c1 [Compound 1429, N-[(6-amino-5-benzyloxy-2-pyridyl)sulfonyl]-6-(3-fluoro-5-isobutoxy-phenyl)-2-[(4S)-2,2,4-trimethylpyrrolidin-1-yl]pyridine-3-carboxamide] | +++ (“+++” means <3 uM) |

From patent US10758534B2 (Vertex Pharmaceuticals Incorporated, priority 2014, dated 2020)
